The values that follow come from patent publication US7368255B2, “RUNX3 gene showing anti-tumor activity and use thereof” (priority 2001, dated 2008).

The test system of one test is RUNX3 gene expression. Nature of the test: Reactivation of RUNX3 gene expression, RT-PCR. Type of test: cell-based, human. Particulars: AZA 300 nM, TSA 1 mM, alone or in combination, 3 days, NUGC3, MKN28, MKN74 cell lines. The method, then: To determine whether the DNA methylation observed in Example 5-1 is the direct cause of the inactivation of the RUNX3 gene, the influence of a DNA methyltransferase inhibitor and a histone deacetylase inhibitor on the reactivation of the RUNX3 gene expression was analyzed.
The NUGC3, MKN28, and MKN74 cell lines (selected randomly from the cell lines showing no RUNX3 gene expression by RT-PCR analysis) were treated with […] (AZA, 300 nM), which inhibits DNA methyltransferase, and trichostatin A (TSA, […]), which inhibits histone deacetylase, alone or in combination. After 3 days of the treatment, total RNA was isolated from each cell line in accordance with the same standardized single-step guanidium method used in Example 4-1, and then analyzed for the expression of the RUNX3 gene by RT-PCR using the PS-N primer pair of SEQ. ID. NOS: 4 and 5.

In test [1] the test system is SNU16-Rx3-AS-c12 cells. The experiment in a line: TGF-β1-induced cell death, viable cell counts. Type of test: cell-based. The settings on record: TGF-β1 1 ng/ml; SNU16-Rx3-AS-c12 cells (antisense RUNX3).
Test [2] concerns SNU16 cells. The experiment in a line: TGF-β1-induced cell death, viable cell counts. Type of test: cell-based. The settings on record: TGF-β1 1 ng/ml.
Test [3] deals with SNU16 cells. Nature of the test: Apoptotic DNA bands by genomic DNA electrophoresis after TGF-β1. It counts as cell-based. The settings on record: TGF-β1 1 ng/ml, 6 hours. The protocol: (§1) Cells dying through the programmed cell death pathway reveal a distinct pattern of DNA bands when electrophoresed in an agarose gel. After being treated with 1 ng/ml TGF-β1 for 6 hours, the control-SNU16, SNU16-Rx3-AS-c11, and SNU16-Rx3-AS-c12 strains were lysed to isolate genomic DNAs according to a standard method (Sambrook et al., 1988, Molecular Cloning: a laboratory manual, 2nd Ed. Cold Spring Harbor Laboratory, Cold Spring Harbor, N.Y., USA). 0.2 μg of each of the genomic DNA preparations was electrophoresed on a 1.5% agarose gel and visualized with ethidium bromide under UV light.

In test [4] the test system is SNU16-Rx3-AS-c12 cells. The test is described as above. It counts as cell-based. Particulars: TGF-β1 1 ng/ml, 6 hours. The method, then: as §1
Test [5] deals with SNU16-Rx3-AS-c11 cells. The test is described as above. It counts as cell-based. Particulars: TGF-β1 1 ng/ml, 6 hours. The method, then:
as §1

Test [6] has as its system SNU16-Rx3-AS-c11 cells. Nature of the test: TGF-β1-induced cell death, viable cell counts. Particulars: TGF-β1 1 ng/ml; SNU16-Rx3-AS-c11 cells (antisense RUNX3). Type of test: cell-based.

“Also recorded” adds a separate entry of the source.

Consider `Nc1ncn([C@H]2C[C@H](O)[C@@H](CO)O2)c(=O)n1`, for which the “expression of the RUNX3 gene (RT-PCR)” value is “the expression of the RUNX3 gene was induced” with RUNX3 gene expression and “allows the RUNX3 gene to be expressed” with RUNX3 gene expression (listed as 5-aza-2-deoxycytidine).

As to `CC(/C=C/C(=O)NO)=C\[C@@H](C)C(=O)c1ccc(N(C)C)cc1` [trichostatin A], in the test on RUNX3 gene expression, the “expression of the RUNX3 gene (RT-PCR)” value is “allows the RUNX3 gene to be expressed; also recorded: the expression of the RUNX3 gene was induced”.

Regarding “TGF-β1: TGF-β1 cytokine used at 1 ng/ml to induce cell death in SNU16 cells”, the “cell death after TGF-β1 treatment” value in the test with SNU16-Rx3-AS-c12 cells [1] and in the test on SNU16-Rx3-AS-c11 cells [6] was “did not kill” throughout. Also, the “time within which SNU16 cells were killed” value in the test with SNU16 cells [2] is given as no more than 2 days. Further, the “apoptotic DNA bands” value in the test with SNU16 cells [3] is recorded as “apoptotic DNA bands were formed; also recorded: These bands are apparent”; in the test with SNU16-Rx3-AS-c12 cells [4], “no apoptotic bands were observed”; with SNU16-Rx3-AS-c11 cells [5] it was “no apoptotic bands were observed”.
